Measured values taken from patent publication US10160753B2, “Indazole compounds as IRAK4 inhibitors” (Aurigene Discovery Technologies Limited, priority 2014, dated 2018).
Counter-ions that a name gives are not always drawn.

Target: T1, recombinant IRAK-4 kinase (Homo sapiens, UniProt Q9NWZ3)
T1 construct: purchased Millipore, USA
T1 sequence (Q9NWZ3 1-460): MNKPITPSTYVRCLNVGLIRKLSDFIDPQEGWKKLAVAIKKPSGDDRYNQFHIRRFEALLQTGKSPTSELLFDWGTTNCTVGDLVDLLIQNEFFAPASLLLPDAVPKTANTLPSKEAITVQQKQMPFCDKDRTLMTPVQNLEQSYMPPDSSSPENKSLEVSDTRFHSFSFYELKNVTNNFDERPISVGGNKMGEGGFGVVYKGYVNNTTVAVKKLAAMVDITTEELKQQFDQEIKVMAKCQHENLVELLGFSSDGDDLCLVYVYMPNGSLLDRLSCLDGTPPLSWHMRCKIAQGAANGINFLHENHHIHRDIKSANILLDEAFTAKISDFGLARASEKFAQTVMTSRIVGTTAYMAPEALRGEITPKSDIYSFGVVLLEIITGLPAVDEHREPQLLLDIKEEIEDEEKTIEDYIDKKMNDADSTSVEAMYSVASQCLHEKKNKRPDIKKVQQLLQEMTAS
Test: IRAK-4 Biochemical Assay (TR-FRET)
Settings: 30 min pre-incubation, 100 nM Biotin Histone H3, 20 μM ATP, read-out: IC50 values for IRAK4 activity

With `COCCn1ncc2cc(NC(=O)c3coc(-c4ccnc(C)c4)n3)c(N3CCC(N)CC3)cc21` [Example 108, N-(6-(4-aminopiperidin-1-yl)-1-(2-methoxyethyl)-1H-indazol-5-yl)-2-(2-methylpyridin-4-yl)oxazole-4-carboxamide hydrochloride] as the compound, how does the IC50 read?
The IC50 was under 50 nM.

For `Cc1cc(-c2nc(C(=O)Nc3cc4cn(C)nc4cc3N3CCC(N)CC3)co2)ccn1` [Example 109, N-(6-(4-aminopiperidin-1-yl)-2-methyl-2H-indazol-5-yl)-2-(2-methylpyridin-4-yl)oxazole-4-carboxamide hydrochloride], which IC50 is on record?
The IC50 was under 50 nM.

How did the IC50 turn out when `COCCn1nc(C)c2cc(NC(=O)c3coc(-c4ccnc(C)c4)n3)c(N3CCC(CO)CC3)cc21` [Example 110, N-(6-(4-(hydroxymethyl)piperidin-1-yl)-1-(2-methoxyethyl)-3-methyl-1H-indazol-5-yl)-2-(2-methylpyridin-4-yl)oxazole-4-carboxamide] was run?
The IC50 was under 50 nM.

How did the IC50 turn out when `Cc1cc(-c2nc(C(=O)Nc3cc4c(C)nn(C)c4cc3N3CCC(CO)CC3)co2)ccn1` [Example 111, N-(6-(4-(hydroxymethyl)piperidin-1-yl)-1,3-dimethyl-1H-indazol-5-yl)-2-(2-methylpyridin-4-yl)oxazole-4-carboxamide] was run?
The IC50 was under 50 nM.

For `Cc1nn(C)c2cc(N3CCC(CO)CC3)c(NC(=O)c3coc(-c4ccnc(N)c4)n3)cc12` [Example 112, 2-(2-aminopyridin-4-yl)-N-(6-(4-(hydroxymethyl)piperidin-1-yl)-1,3-dimethyl-1H-indazol-5-yl)oxazole-4-carboxamide], which IC50 is on record?
The IC50 was under 50 nM.

With `Cn1ncc2cc(NC(=O)c3coc(-c4ccnc(O)c4)n3)c(N3CCC(O)CC3)cc21` [Example 113, N-(6-(4-hydroxypiperidin-1-yl)-1-methyl-1H-indazol-5-yl)-2-(2-hydroxypyridin-4-yl)oxazole-4-carboxamide] as the compound, how does the IC50 read?
Its IC50 is under 50 nM.

Which IC50 does the source give for `Cc1cc(-c2nc(C(=O)Nc3cc4cnn(C)c4cc3N3CCC(O)CC3)co2)cc(C)n1` [Example 114, 2-(2,6-dimethylpyridin-4-yl)-N-(6-(4-hydroxypiperidin-1-yl)-1-methyl-1H-indazol-5-yl)oxazole-4-carboxamide] here?
The IC50 was under 50 nM.

How did the IC50 turn out when `Cc1cc(-c2nc(C(=O)Nc3cc4cnn(C)c4cc3N3CC[C@H](O)C3)co2)ccn1` [Example 115, (S)—N-(6-(3-hydroxypyrrolidin-1-yl)-1-methyl-1H-indazol-5-yl)-2-(2-methylpyridin-4-yl)oxazole-4-carboxamide] was run?
The IC50 was under 50 nM.

For `COCCn1nc(C)c2cc(NC(=O)c3coc(-c4ccnc(C)c4)n3)c(N3CCC(O)CC3)cc21` [Example 116, N-(6-(4-hydroxypiperidin-1-yl)-1-(2-methoxyethyl)-3-methyl-1H-indazol-5-yl)-2-(2-methylpyridin-4-yl)oxazole-4-carboxamide], which IC50 is on record?
Its IC50 is under 50 nM.

For `Cc1cc(-c2nc(C(=O)Nc3cc4cnn(CCO)c4cc3N3CCC(O)CC3)co2)ccn1` [Example 117, N-(1-(2-hydroxyethyl)-6-(4-hydroxypiperidin-1-yl)-1H-indazol-5-yl)-2-(2-methylpyridin-4-yl)oxazole-4-carboxamide], which IC50 is on record?
The IC50 was under 50 nM.

`COCCn1cc2cc(NC(=O)c3coc(-c4ccnc(C)c4)n3)c(N3CCC(N)CC3)cc2n1` [Example 118, N-(6-(4-aminopiperidin-1-yl)-2-(2-methoxyethyl)-2H-indazol-5-yl)-2-(2-methylpyridin-4-yl)oxazole-4-carboxamide hydrochloride] was tested. Which IC50 did it give?
The IC50 was under 50 nM.

Which IC50 does the source give for `Cc1cc(-c2nc(C(=O)Nc3cc4cn(C)nc4cc3N3CCCCC3)co2)cc(C)n1` [Example 119, 2-(2,6-dimethylpyridin-4-yl)-N-(2-methyl-6-(piperidin-1-yl)-2H-indazol-5-yl)oxazole-4-carboxamide hydrochloride] here?
The IC50 was under 50 nM.

How did the IC50 turn out when `CN(C)c1cc(-c2nc(C(=O)Nc3cc4cn(C)nc4cc3N3CCCCC3)co2)ccn1` [Example 120, 2-(2-(dimethylamino)pyridin-4-yl)-N-(2-methyl-6-(piperidin-1-yl)-2H-indazol-5-yl)oxazole-4-carboxamide hydrochloride] was run?
The IC50 was under 50 nM.

How did the IC50 turn out when `CNc1cc(-c2nc(C(=O)Nc3cc4cn(C)nc4cc3N3CCCCC3)co2)ccn1` [Example 122, N-(2-methyl-6-(piperidin-1-yl)-2H-indazol-5-yl)-2-(2-(methylamino)pyridin-4-yl)oxazole-4-carboxamide hydrochloride] was run?
The IC50 was under 50 nM.

For `Cn1cc2cc(NC(=O)c3coc(-c4ccnc(NS(C)(=O)=O)c4)n3)c(N3CCC(O)CC3)cc2n1` [Example 123, N-(6-(4-hydroxypiperidin-1-yl)-2-methyl-2H-indazol-5-yl)-2-(2-(methylsulfonamido)pyridin-4-yl) oxazole-4-carboxamide], which IC50 is on record?
The IC50 was under 50 nM.

With `Cc1cc(-c2nc(C(=O)Nc3cc4cn(C)nc4cc3N3CCC(O)CC3)co2)cc(C)n1` [Example 126, 2-(2,6-dimethylpyridin-4-yl)-N-(6-(4-hydroxypiperidin-1-yl)-2-methyl-2H-indazol-5-yl) oxazole-4-carboxamide] as the compound, how does the IC50 read?
Its IC50 is under 50 nM.

`CCOP(=O)(OCC)OC1CCN(c2cc3c(cnn3C)cc2NC(=O)c2coc(-c3ccnc(C)c3)n2)CC1` [Example 128, Diethyl (1-(1-methyl-5-(2-(2-methylpyridin-4-yl)oxazole-4-carboxamido)-1H-indazol-6-yl)piperidin-4-yl) phosphate] was tested. Which IC50 did it give?
The IC50 was 50 to 100 nM.

For `CCOP(=O)(OCC)OCC1CCN(c2cc3nn(C)cc3cc2NC(=O)c2coc(-c3ccnc(C)c3)n2)CC1` [Example 129, Diethyl ((1-(2-methyl-5-(2-(2-methylpyridin-4-yl)oxazole-4-carboxamido)-2H-indazol-6-yl)piperidin-4-yl)methyl) phosphate], which IC50 is on record?
The IC50 was under 50 nM.
